Data on three substances can be found in US8877715B2, “Cytotoxic conjugates having neuropeptide Y receptor binding compound” (priority 2009, dated 2014).

The test system of experiment [1] is Human MCF-7 breast carcinoma cells. As to the kind of experiment: In vivo growth assay, MCF-7 xenograft (Study A and Study B). The note with it: Study B; for TGI: Day 15. Also on record: species or system nude mice. How it is done: Once-weekly treatments were administered for three weeks by tail vein injection except in cases where poor drug solubility or tail necrosis necessitated intraperitoneal injections. […] Example 93 was evaluated in Study B at 55.45 mg/kg, 110.9 mg/kg and 221.8 mg/kg. Antitumor activity was assessed by tumor growth delay (“TGD”) defined as the difference in median time to endpoint tumor size in a treatment group compared to the control group, and by tumor growth inhibition (“TGI”) defined as the difference between median tumor volumes of the treatment and control groups on a study day providing a balance between measurable group responses and large group sizes. Toxicity was evaluated by body weight measurements and clinical observations.
Female nude mice (nu/nu, Harlan) were 10-11 weeks old and had body weight ranges of
The animals were fed ad libitum water (reverse osmosis, 1 ppm Cl) and NIH 31 Modified and Irradiated Lab Diet® consisting of 18.0% crude protein, 5.0% crude fat, and 5.0% crude fiber. The mice were housed on irradiated ALPHA-Dri® Bed-o′ Cobs® Laboratory Animal Bedding in static microisolators on a 12-hour light cycle at 21-22° C.
Human MCF-7 breast carcinoma cells were maintained in RPMI 1640 medium containing 100 units/mL penicillin G sodium, 100 μg/mL streptomycin sulfate, and 25 μg/mL gentamicin. The medium was supplemented with 10% heat-inactivated fetal bovine serum and 2 mM glutamine. Additional buffering was provided with 10 mM HEPES and 0.075% sodium bicarbonate. The tumor cells were cultured in tissue culture flasks in a humidified incubator at 37° C. in an atmosphere of 95% air and 5% CO2.
Three to seven days prior to cell injection, a pellet containing 17-β-estradiol (0.36 mg, 60-day release, Innovative Research of America) was implanted subcutaneously between the scapulae of each mouse.
The MCF-7 tumor cells used for implantation were harvested during log phase growth and resuspended in phosphate-buffered saline at 5×10^7 cells/mL. […] Tumors were monitored twice weekly and then daily as their volumes approached 80-120 mm^3. […] Thus, a separate study (“Study B”) was set up comprising six groups (n=10) of animals. In this study, 17 days elapsed between cell implantation and group assignment. […] Tumor size, in mm^3, was calculated from:
[formula] where w=width and l=length in mm of the MCF-7 tumor. Tumor weight may be estimated with the assumption that 1 mg is equivalent to 1 mm^3 of tumor volume.
Example 93 dosing solutions were prepared fresh in 0.1N acetic acid for each day of treatment.
Camptothecin (Lot No. 034K3648, Sigma) stock solutions were made from 60% DMA and 40% Tween 80 and stored at room temperature during the study. Dosing solutions were prepared fresh on each day of dosing by diluting the stocks 1:20 in saline.
The treatment plans are summarized in Table 3A for Study A and Table 3B for Study B.
All treatments and vehicles were given once-weekly for three doses (“qwk×3”). Group 1 mice received no gavage and no injections, and served as a control for tumor progression and estrogen toxicity. Group 2 animals received vehicle.
Each treatment dose was administered in a volume of 0.2 mL per 20 g of body weight, and was scaled to the body weight of the animal.
Median tumor growth curves of FIGS. 1-3 show median tumor volumes as a function of time. When an animal exited the study due to tumor size, the final tumor volume recorded for the animal was included with the data used to calculate the group median tumor volume at subsequent time points. Curves were truncated after 50% of animals in a group had exited the study.

Experiment [2] addresses T1, NPY-Y2 receptor (Homo sapiens, UniProt P49146).
T1 construct: the appropriate cells (SK-N-MC for NPY-Y1; host or cells: SK-N-BE2 human neuroblastoma cells (membrane homogenate)
T1 sequence (P49146 1-381): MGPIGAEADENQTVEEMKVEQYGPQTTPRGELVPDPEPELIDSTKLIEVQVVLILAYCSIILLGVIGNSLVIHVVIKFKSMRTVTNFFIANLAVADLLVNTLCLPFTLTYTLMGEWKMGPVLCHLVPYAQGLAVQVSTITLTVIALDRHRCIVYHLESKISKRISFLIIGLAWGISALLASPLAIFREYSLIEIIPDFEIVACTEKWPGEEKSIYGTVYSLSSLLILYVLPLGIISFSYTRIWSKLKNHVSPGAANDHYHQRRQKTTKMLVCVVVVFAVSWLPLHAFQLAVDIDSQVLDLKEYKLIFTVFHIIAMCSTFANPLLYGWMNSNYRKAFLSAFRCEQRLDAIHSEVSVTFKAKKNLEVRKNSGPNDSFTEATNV
Kind of experiment: In vitro radioligand NPY-Y2 receptor binding assay ([125I]PYY, SK-N-BE2 cell membranes). The note with it: [125I]PYY displacement. The protocol: In Vitro Radioligand NPY-Y1 and NPY-Y2 Receptor Binding Assays
Human neuroblastoma cell lines, SK-N-MC and SK-N-BE2 (American Type Culture Collection, Rockville, Md., USA), expressing the NPY-Y1 and NPY-Y2 receptors, respectfully, were cultured in EMEM containing 10% fetal calf serum and 5% chicken embryo extract, maintained at 37° C. in a humidified atmosphere of and 95% air and 5% CO2.
For the in vitro NPY-Y1 and NPY-Y2 radioligand binding assays, the appropriate cells (SK-N-MC for NPY-Y1; SK-N-BE2 for NPY-Y2) were harvested and then homogenized in 20 ml of ice-cold 50 mM Tris-HCl with a Brinkman Polytron (Westbury, N.Y., USA) (setting 6, 15 sec). The homogenates were washed twice by centrifugation (39,000 g/10 min), and the final pellets were resuspended in 50 mM Tris-HCl, containing 2.5 mM MgCl2, 0.1 mg/ml bacitracin (Sigma Chemical, St. Louis, Mo., USA), and 0.1% BSA.

For “[camptothecin-rvD-Asp-Suc-Tyr^1, Nle^17, A6c^31, 4Hyp^34]hNPY(1-36)-NH2 [Example 93]”, the “tumor growth delay (TGD)” value in experiment [1] was “TGD analysis did not distinguish responses to Example 93 from tumor growth in the untreated control”. The figures for the TGI in experiment [1] (110.9 mg/kg) and in experiment [1] (221.8 mg/kg) were 71% and 77%, respectively. Also, the mean tumor volume in experiment [1] (G 4: 55.45 mg/kg qwk x 3, D 1) is given as 112.9 mm^3; in experiment [1] (G 4: 55.45 mg/kg qwk x 3, D 4), 206.3 mm^3; in experiment [1] (G 4: 55.45 mg/kg qwk x 3, D 8) it was 227.6 mm^3; in experiment [1] (G 4: 55.45 mg/kg qwk x 3, D 12) it was 236.1 mm^3; in experiment [1] (G 4: 55.45 mg/kg qwk x 3, D 15), 323.1 mm^3; in experiment [1] (G 4: 55.45 mg/kg qwk x 3, D 19), 348.4 mm^3. In addition, the mean tumor volume is given as 343.3 mm^3 in experiment [1] (G 4: 55.45 mg/kg qwk x 3, D 22); 366.9 mm^3 in experiment [1] (G 4: 55.45 mg/kg qwk x 3, D 26); 426.8 mm^3 in experiment [1] (G 4: 55.45 mg/kg qwk x 3, D 29); 524.5 mm^3 in experiment [1] (G 4: 55.45 mg/kg qwk x 3, D 33); 621.9 mm^3 in experiment [1] (G 4: 55.45 mg/kg qwk x 3, D 36); 452.8 mm^3 in experiment [1] (G 4: 55.45 mg/kg qwk x 3, D 40). The mean tumor volume in experiment [1] (G 5: 110.9 mg/kg qwk x 3, D 1) was determined as 112.8 mm^3; in experiment [1] (G 5: 110.9 mg/kg qwk x 3, D 4), 217.3 mm^3; in experiment [1] (G 5: 110.9 mg/kg qwk x 3, D 8), 213 mm^3; in experiment [1] (G 5: 110.9 mg/kg qwk x 3, D 12), 186.6 mm^3; in experiment [1] (G 5: 110.9 mg/kg qwk x 3, D 15), 242.5 mm^3; in experiment [1] (G 5: 110.9 mg/kg qwk x 3, D 19), 212.6 mm^3. Further, the mean tumor volume came out at 207.7 mm^3 in experiment [1] (G 5: 110.9 mg/kg qwk x 3, D 22); 225.5 mm^3 in experiment [1] (G 5: 110.9 mg/kg qwk x 3, D 26); 308.7 mm^3 in experiment [1] (G 5: 110.9 mg/kg qwk x 3, D 29); 112.3 mm^3 in experiment [1] (G 5: 110.9 mg/kg qwk x 3, D 33); 141.1 mm^3 in experiment [1] (G 5: 110.9 mg/kg qwk x 3, D 36); 229.5 mm^3 in experiment [1] (G 5: 110.9 mg/kg qwk x 3, D 40). Also, the mean tumor volume amounted to 112.7 mm^3 in experiment [1] (G 6: 221.8 mg/kg qwk x 3, D 1); 197.9 mm^3 in experiment [1] (G 6: 221.8 mg/kg qwk x 3, D 4); 170.3 mm^3 in experiment [1] (G 6: 221.8 mg/kg qwk x 3, D 8); 108 mm^3 in experiment [1] (G 6: 221.8 mg/kg qwk x 3, D 12); 122.8 mm^3 in experiment [1] (G 6: 221.8 mg/kg qwk x 3, D 15); 66.6 mm^3 in experiment [1] (G 6: 221.8 mg/kg qwk x 3, D 19). Besides, the mean tumor volume in experiment [1] (G 6: 221.8 mg/kg qwk x 3, D 22) is 66 mm^3; in experiment [1] (G 6: 221.8 mg/kg qwk x 3, D 26), 80.4 mm^3; in experiment [1] (G 6: 221.8 mg/kg qwk x 3, D 29), 90.1 mm^3; in experiment [1] (G 6: 221.8 mg/kg qwk x 3, D 33), 109.6 mm^3; in experiment [1] (G 6: 221.8 mg/kg qwk x 3, D 36), 123.8 mm^3; in experiment [1] (G 6: 221.8 mg/kg qwk x 3, D 40) it was 233.2 mm^3. In addition, the tumor growth curves entry in experiment [1] (all dose levels) was “clear reduction in tumor growth at all dose levels”.
As for “[Camptothecin-rvD/L-Asp-Suc-Tyr^1, Nle^17, A6c^31, 4Hyp^34]hNPY(1-36)-NH2 [93/93A]”, the inhibitory constant (Ki) – broadly, the equilibrium dissociation constant of an inhibitor or competing ligand from its target – in experiment [2] was greater than 1000 nM.
Same read-out and setting: the value for “[camptothecin-rvD/Lasp-Suc-Tyr^1, Nle^17, 4Hyp^34]hNPY(1-36)-NH2 [Example 92/92A]” was greater than 1000 nM.
